Data published in patent publication US20220306695A1, “COMPSTATIN ANALOGUES AND THEIR MEDICAL USES” (priority 2019, published 2022).
Positions of bridges follow the written chain, without caps; N, C: chain ends. Non-standard residues stand in square brackets, D forms with d. Residues, ends and D or L forms follow the SMILES beside them. Trp(1-Me) = Cn1cc(C[C@H](N)C(=O)O)c2ccccc21; Sar = CNCC(=O)O

B1: Compound 1 (peptide)
peptide: Ac-ICIWQDWGAHRCT-NH2
modifications: disulfide 2-12
SMILES: CC[C@H](C)[C@H](NC(C)=O)C(=O)N[C@H]1CSSC[C@@H](C(=O)N[C@H](C(N)=O)[C@@H](C)O)NC(=O)[C@H](CCCNC(=N)N)NC(=O)[C@H](Cc2c[nH]cn2)NC(=O)[C@H](C)NC(=O)CNC(=O)[C@H](Cc2c[nH]c3ccccc23)NC(=O)[C@H](CC(=O)O)NC(=O)[C@H](CCC(N)=O)NC(=O)[C@H](Cc2c[nH]c3ccccc23)NC(=O)[C@H]([C@@H](C)CC)NC1=O

Legend:
[1] = test system: alternative complement pathway; experiment: Ex vivo alternative pathway complement activity (WIESLAB kit) in serum of dosed non-human primates; set-up: species or system Cynomolgus monkeys (Macaca fascicularis); conditions: NHP, subcutaneous 1840 nmol/kg, FIG. 1
Method: FIG. 1(a-g): Normalized “ex vivo” activity of the alternative complement pathway over time after administration of a test compound at time 0 to non-human primates. Compounds were given subcutaneously at a dose of 1840 nmol/kg. Complement activity (alternative pathway) was measured using the Wieslab kit. Activity was normalized using the predose (0) sample (set to 100%) and the negative control included in the kit. Normalized activity or average normalized activity for animals and standard deviation is shown.
Healthy male Cynomolgus monkeys (Macaca fascicularis) received single subcutaneous administrations of each test substance. Compounds were formulated in 20 mM phosphate adjusted with NaOH to pH 7.5 and mannitol for isotonicity and dosed at 1840 nmol/kg. Blood was collected from a femoral vein from each animal at the following times: Pre-dose, 1, 2, 4, 8, 24, 48, 72, 96 and 120 h (10 sampling times). Blood was collected into serum separation tubes and allowed to clot at room temperature. The tubes were centrifuged and resulting serum was aliquoted and snap-frozen over dry-ice and stored at nominally −80° C. until analysis. All NHP studies were performed in accordance with animal welfare laws and regulations, including approval of the study by a local ethical review process.
Serum isolated from non-human primates at specific time points after dosing were analyzed for alternative pathway complement activity using the Complement system Alternative Pathway WIESLAB® kit from Svar Life Science (previously Euro diagnostic AB, Sweden) following the manufacturer's protocol. Briefly, serum samples or controls were diluted in buffer and incubated in microtitre strips coated with specific activators of the alternative pathway. The wells were washed and formed C5b-9 was detected using included colorimetric reagents.
Absorbance at 405 nm was measured. The percent activity of the alternative complement pathway was calculated for each animal and timepoint relative to the pre-dose activity (0 hours) of the individual animal with subtraction of the negative control. […]

[2] = test system: classical complement pathway; experiment: In vitro haemolysis assay (inhibition of classical complement pathway); assay type: cell-based, human; conditions: Table 3; human serum, sensitized sheep red blood cells; read-out: IC50[nM], in vitro analysis of inhibition of hemolysis
How it was run: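 Serially diluted compound (9 points) was preincubated 15 min at room temperature with diluted human serum, titrated per batch to give 70-90% maximal haemolysis, in Tris/casein buffer pH 7.4 with Mg2+/Ca2+. Antibody-sensitized sheep erythrocytes were then added for 30 min at 37° C, and the reaction was stopped with EDTA. Haemolysis was read at A405, with IC50 from 4PL fit.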

in vivo = experiment: in vivo; set-up: species or system Cynomolgus monkeys (Macaca fascicularis); conditions: male, cynomolgus monkey, sc, 1840 nmol/kg, t½
How it was run: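 Healthy male cynomolgus monkeys dosed once subcutaneously at 1840 nmol/kg in 20 mM phosphate pH 7.5 with mannitol. Serum sampled pre-dose to 120 h and total drug measured by SPE and LC-MS/MS. Terminal half-life calculated non-compartmentally as ln(2)/λz from the terminal log-linear phase.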

[3] = Solubility test at 10 mg/mL (visual inspection and light scattering); assay type: physicochemical; conditions: for Solubility, Condition 1 Acetate pH 4: 10 mg/mL compound in 100 mM acetate pH 4; for Solubility, Condition 2 Acetate pH 5: 10 mg/mL compound in 100 mM acetate pH 5; for Solubility, Condition 3 Phosphate pH 6: 10 mg/mL compound in 100 mM phosphate pH 6; for Solubility, Condition 4 Phosphate pH 7: 10 mg/mL compound in 100 mM phosphate pH 7; for Solubility, Condition 5 Phosphate pH 7.5: 10 mg/mL compound in 100 mM phosphate pH 7.5
Human C3 [4] = target: T1, Human C3 (human, UniProt P01024 23-1663); experiment: cell-based or functional assay
Human C3 [5] = target: T1, Human C3; experiment: cell-based or functional assay; remark: listed apart in the source

T1 sequence (P01024 23-1663 limits assumed): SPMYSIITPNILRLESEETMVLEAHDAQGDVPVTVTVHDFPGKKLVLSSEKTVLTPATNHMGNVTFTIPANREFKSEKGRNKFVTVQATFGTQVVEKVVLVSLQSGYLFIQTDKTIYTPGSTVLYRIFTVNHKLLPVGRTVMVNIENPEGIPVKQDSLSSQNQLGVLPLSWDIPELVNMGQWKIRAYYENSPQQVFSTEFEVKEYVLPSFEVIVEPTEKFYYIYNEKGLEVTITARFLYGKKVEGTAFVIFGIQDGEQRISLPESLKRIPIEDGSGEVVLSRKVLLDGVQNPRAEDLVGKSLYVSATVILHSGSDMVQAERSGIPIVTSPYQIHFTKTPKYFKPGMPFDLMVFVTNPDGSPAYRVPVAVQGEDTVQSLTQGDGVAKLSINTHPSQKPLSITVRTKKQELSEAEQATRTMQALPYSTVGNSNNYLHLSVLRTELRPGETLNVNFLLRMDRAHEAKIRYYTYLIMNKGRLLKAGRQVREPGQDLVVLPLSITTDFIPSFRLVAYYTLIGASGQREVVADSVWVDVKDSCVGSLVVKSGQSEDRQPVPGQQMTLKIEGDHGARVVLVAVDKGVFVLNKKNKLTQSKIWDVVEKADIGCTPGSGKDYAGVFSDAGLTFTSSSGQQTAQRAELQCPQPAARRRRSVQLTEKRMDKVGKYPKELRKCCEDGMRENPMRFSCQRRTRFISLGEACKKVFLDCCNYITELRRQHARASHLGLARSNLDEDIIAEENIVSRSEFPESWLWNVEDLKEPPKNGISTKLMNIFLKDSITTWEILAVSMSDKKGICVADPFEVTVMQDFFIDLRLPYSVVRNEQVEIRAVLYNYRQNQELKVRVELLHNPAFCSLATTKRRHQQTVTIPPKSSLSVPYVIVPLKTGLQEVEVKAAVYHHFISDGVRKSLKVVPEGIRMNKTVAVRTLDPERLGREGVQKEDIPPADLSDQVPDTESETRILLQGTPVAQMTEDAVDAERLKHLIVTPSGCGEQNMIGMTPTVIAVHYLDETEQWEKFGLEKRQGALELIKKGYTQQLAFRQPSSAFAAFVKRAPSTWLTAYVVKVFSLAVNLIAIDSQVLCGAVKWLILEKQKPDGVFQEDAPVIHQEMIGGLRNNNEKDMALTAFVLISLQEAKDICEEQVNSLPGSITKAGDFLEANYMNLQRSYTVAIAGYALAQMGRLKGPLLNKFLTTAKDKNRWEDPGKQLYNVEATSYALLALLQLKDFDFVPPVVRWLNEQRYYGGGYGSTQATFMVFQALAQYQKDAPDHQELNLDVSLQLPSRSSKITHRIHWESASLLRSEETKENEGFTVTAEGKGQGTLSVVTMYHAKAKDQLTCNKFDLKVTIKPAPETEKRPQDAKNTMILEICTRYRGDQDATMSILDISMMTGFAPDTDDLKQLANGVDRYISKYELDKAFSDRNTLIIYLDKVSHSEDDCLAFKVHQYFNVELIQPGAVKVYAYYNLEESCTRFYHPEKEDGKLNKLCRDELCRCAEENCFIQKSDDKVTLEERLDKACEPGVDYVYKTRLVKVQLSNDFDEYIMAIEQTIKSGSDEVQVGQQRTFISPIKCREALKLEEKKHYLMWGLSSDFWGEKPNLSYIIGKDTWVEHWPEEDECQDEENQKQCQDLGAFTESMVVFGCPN

| half-life (in vivo) [h] | Molecule | Duration of pharmacological activity (alternative complement pathway activity) in vivo [1] | IC50 [2] [nM] | Solubility, Condition 1 Acetate pH 4 [3] | Solubility, Condition 2 Acetate pH 5 [3] | Solubility, Condition 3 Phosphate pH 6 [3] | Solubility, Condition 4 Phosphate pH 7 [3] | Solubility, Condition 5 Phosphate pH 7.5 [3] | CP hemolysis IC50 (Human C3 [4]) [µM] | IC50[nM], inhibition of hemolysis (Human C3 [5]) [nM] |
| --- | --- | --- | --- | --- | --- | --- | --- | --- | --- | --- |
| 31.8 | CC[C@H](C)[C@H](NC(=O)[C@H](N)Cc1ccc(O)cc1)C(=O)N[C@H]1CSSC[C@@H](C(=O)N(C)[C@H](C(N)=O)[C@@H](C)CC)NC(=O)[C@H](CCCNC(=N)N)NC(=O)[C@H](Cc2c[nH]cn2)NC(=O)[C@H](C)NC(=O)CN(C)C(=O)[C@H](Cc2c[nH]c3ccccc23)NC(=O)[C@H](CC(=O)O)NC(=O)[C@H](CCC(N)=O)NC(=O)[C@H](Cc2cn(C)c3ccccc23)NC(=O)[C@H](C(C)C)NC1=O [Cp40, H-{d}YIC(1)V[1-Me-Trp]QDW[Sar]AHRC(1)[N-Me-Ile]-NH2, reference compound] | relatively short duration of action | < 100 |  |  |  |  |  |  |  |
| 23.3 | CC[C@H](C)[C@@H]1NC(=O)[C@@H](NC(=O)[C@H](Cc2ccccc2)NC(C)=O)CSSC[C@@H](C(=O)N[C@H](C(=O)NCC(=O)N[C@@H](C)C(=O)N[C@@H](CCC(=O)O)C(=O)N[C@@H](CO)C(N)=O)[C@@H](C)O)NC(=O)[C@H](CCCNC(=N)N)NC(=O)[C@H](Cc2c[nH]cn2)NC(=O)[C@H](CCC(=O)O)NC(=O)CNC(=O)[C@H](Cc2c[nH]c3ccccc23)NC(=O)[C@H](CC(=O)O)NC(=O)[C@H](CCC(N)=O)NC(=O)[C@H](Cc2cn(C)c3ccccc23)NC1=O [Compound 61] (Ac-FCI[Trp(1-Me)]QDWGEHRCTGAES-NH2; disulfide 2-12) | relatively short duration of action | < 100 | − (denotes lack of solubility at the given condition, as UV absorbance at 340 nm exceeds 0.1 AU and/or it is visibly turbid or contains particles.) | − (denotes lack of solubility at the given condition, as UV absorbance at 340 nm exceeds 0.1 AU and/or it is visibly turbid or contains particles.) | + (denotes solubility at the given condition, as determined by UV absorbance being less than 0.1 AU at 340 nm and the sample being clear when manually inspected.) | + (denotes solubility at the given condition, as determined by UV absorbance being less than 0.1 AU at 340 nm and the sample being clear when manually inspected.) | + (denotes solubility at the given condition, as determined by UV absorbance being less than 0.1 AU at 340 nm and the sample being clear when manually inspected.) |  |  |
| 9.71 | CC[C@H](C)[C@@H]1NC(=O)[C@@H](NC(=O)[C@H](Cc2ccc(O)cc2)NC(=O)[C@H](C)NC(=O)[C@H](CO)NC(=O)CNC(=O)[C@H](CCC(=O)O)NC(C)=O)CSSC[C@@H](C(=O)N(C)CC(=O)N[C@@H](CCC(=O)O)C(N)=O)NC(=O)[C@H](CCCNC(=N)N)NC(=O)[C@H](Cc2c[nH]cn2)NC(=O)[C@H](CCC(=O)O)NC(=O)CNC(=O)[C@H](Cc2c[nH]c3ccccc23)NC(=O)[C@H](CC(=O)O)NC(=O)[C@H](CCC(N)=O)NC(=O)[C@H](Cc2cn(C)c3ccccc23)NC1=O [Compound 54] (Ac-EGSAYCI[Trp(1-Me)]QDWGEHRC[Sar]E-NH2; disulfide 6-16) | relatively short duration of action | < 100 | − (denotes lack of solubility at the given condition, as UV absorbance at 340 nm exceeds 0.1 AU and/or it is visibly turbid or contains particles.) | − (denotes lack of solubility at the given condition, as UV absorbance at 340 nm exceeds 0.1 AU and/or it is visibly turbid or contains particles.) | + (denotes solubility at the given condition, as determined by UV absorbance being less than 0.1 AU at 340 nm and the sample being clear when manually inspected.) | + (denotes solubility at the given condition, as determined by UV absorbance being less than 0.1 AU at 340 nm and the sample being clear when manually inspected.) | + (denotes solubility at the given condition, as determined by UV absorbance being less than 0.1 AU at 340 nm and the sample being clear when manually inspected.) |  |  |
|  | B1 |  |  |  |  |  |  |  | 0.15 | < 250 |
